Values quoted from earlier work as cited in patent US20120101124A1, “1,2,4-OXADIAZOL DERIVATIVES, THEIR PHARMACEUTICAL COMPOSITIONS AND THEIR USE AS SPHINGOSINE 1-PHOSPHATE 1 RECEPTOR AGONISTS” (GLAXO GROUP LIMITED, priority 2009, published 2012).

What was measured:
circulating lymphocytes = conditions: animals and man
[1] = clinical studies

SMILES: CCCCCCCCc1ccc(CCC(N)(CO)CO)cc1 [FTY720]
- effect on circulating lymphocytes (circulating lymphocytes): reduce circulating lymphocytes in animals and man
- bradycardia on treatment [1]: bradycardia in the first 24 hours of treatment
